Values of other authors as cited in US20150320746A1, “PHARMACEUTICAL FORMULATION COMPRISING 2,3-DIMETHYL-6-(N,N-DIMETHYLAMINOETHYL)-6H-INDOLO-(2,3-B)QUINOXALINE” (priority 2011, published 2015).

Tested on: HSV-1

Nc1nc2c(ncn2COCCO)c(=O)[nH]1 [Acyclovir, acyclovir]
selectivity ratio for the inhibitory activity against HSV-1 in vitro: about 2000
